Experimental data from ChEMBL document CHEMBL3784999, “Investigation of 4-amino-5-alkynylpyrimidine-2(1H)-ones as anti-mycobacterial agents” (Bioorg Med Chem, 2016).
Converted amounts (≈) assume the structure as drawn. The source made the active and inactive calls. No cut-off for these calls is given here.

What was measured:
[1] = system: Mycobacterium tuberculosis; assay: Antimycobacterial activity against rifampicin resistant Mycobacterium tuberculosis H37Rv ATCC 35838 at 2 ug/ml; format: functional, organism-based
[2] = system: Mycobacterium tuberculosis; assay: Antimycobacterial activity against rifampicin resistant Mycobacterium tuberculosis H37Rv ATCC 35838 at 1 ug/ml; format: functional
[3] = system: Mycobacterium tuberculosis; assay: Antimycobacterial activity against rifampicin resistant Mycobacterium tuberculosis H37Rv ATCC 35838; format: functional

CO[C@H]1/C=C/O[C@@]2(C)Oc3c(C)c(O)c4c(O)c(c(/C=N/N5CCN(C)CC5)c(O)c4c3C2=O)NC(=O)/C(C)=C\C=C\[C@H](C)[C@H](O)[C@@H](C)[C@@H](O)[C@@H](C)[C@H](OC(C)=O)[C@@H]1C [RIFAMPIN]
Activity [1]: inactive

NNC(=O)c1ccncc1 [ISONIAZID]
inhibition at 1 µg/mL [2]: 100%

CCCCCC#Cc1c[nH]c(=O)nc1N
MIC50 [3]: 12.5 µg/mL (≈ 60.9 µM)
